The results in this text go back to patent publication US20030153538A1, “Antitumor agent” (The Nisshin OilliO, Ltd., priority 2000, published 2003).

The test system of one experiment is B-16 melanoma cells. The experiment in a line: Tests for tumor cell-proliferation-inhibitory effect and tumor cell-extinction (cell growth rate from viable cell count). As to conditions: for tumor cell-proliferation-inhibitory effect (in words): summary of Table 1; for tumor cell-killing effect (in words): at not less than 2 times the concentration required for proliferation inhibition. The experiment is classed as cell-based. On the procedure: The tumor cell-proliferation-inhibitory effect and the tumor cell-killing or extinction effect can be determined according to the following method using B-16 melanoma cells.
More specifically, B-16 melanoma cells are inoculated in each well of a 6-well plate in a desired amount, followed by allowing the plate to stand at 37° C. and 5% carbon dioxide concentration to thus cultivate the cells, adding a sample solution to be tested (maslinic acid, erythrodiol, ursolic acid, uvaol, betulinic acid, betulin and physiologically acceptable salts thereof or derivatives thereof) to each well in an amount sufficient for achieving a desired concentration, on the next day or after 5 days from the initiation of the cultivation, determination of viable cell count on the 6th day after the initiation of the cultivation and calculation of the cell growth rate based on the viable cell count to thus evaluate the tumor cell-proliferation-inhibitory effect and the tumor cell-killing effect.
Tests for determining the tumor cell-proliferation-inhibitory effect and the tumor cell-killing effect were conducted according to the following method. To a 6-well plate, a culture medium was dispensed in an amount of 2 mL/well, B-16 melanoma cells were then inoculated in a desired quantity and thereafter the melanoma cells were cultivated by allowing the plate or the culture medium to stand at 37° C. and a carbon dioxide concentration of 5%. On the following day, a test sample solution prepared was added to and admixed with the content of each well to a desired concentration and the cultivation of the melanoma cells was continued. The culture medium was then exchanged on the 5th day from the initiation of the cultivation and the test sample solution was again added to each well. On the next day, the culture medium was removed to recover the cultivated melanoma cells, followed by washing the cells with PBS (phosphate buffered saline), determination of the viable cell count, and then calculation of the cell growth rate according to the following equation 1. The tumor cell-proliferation-inhibitory effect and the tumor cell-killing effect of each test sample were evaluated on the basis of the cell growth rate thus determined.
Cell Growth Rate (%)=(A/B)×100
As comparative examples, oleanolic acid, β-amyrin, α-amyrin and lupeol were added to the culture medium to thus determine and evaluate the cell growth rate by the same method used above.

The subject of a further experiment is B16 melanoma cells. The experiment in a line: Test for malignant melanoma metastasis-inhibitory effect (lung metastasis after i.v. injection of B16 melanoma cells). The experiment is classed as in vivo, Whister female rats. As to conditions: rats; for RMI (rate of metastasis-inhibition): 100 mg/body wt. (kg), Oral Adm., every other day, lung lesions on 15th day; for tumor cell-metastasis-inhibitory effect compared with the control group (in words): metastasis of cancer to lung, summary of Table 2. As for the experimental part:
The tumor cell-metastasis-inhibitory effect can be evaluated according to, for instance, the malignant melanoma metastasis-inhibitory test. More specifically, a suspension of B16 melanoma cells prepared in advance is intravenously injected into Whister female rats, cotton seed oil in which each test substance is dissolved in a predetermined concentration is intraperitoneally administered through injection or orally administered using a sonde, every second day starting from 2nd day after the intravenous injection of the suspension. In this connection, only cotton seed oil is administered to the control group of animals. The lungs are extracted from these animals on the 15th day after the injection of the B16 melanoma cells, the lungs are examined to determine the number of cancer lesions thus metastasized to thus calculate the rate of metastasis-inhibition. The tumor cell-metastasis-inhibitory effect of each test sample is evaluated on the basis of the resulting rate of metastasis-inhibition.
Tests for evaluating the malignant melanoma metastasis-inhibitory effect of each test sample were conducted according to the following method. Whister female rats (6-week-old; average body weight: 160 g) were preliminarily bred with a powdery feed preparation having a composition of AIN-93 for one week, these animals were divided into 5 groups (8 animals per group) so as to equalize the average body weight and then a previously prepared suspension of B16 melanoma cells was intravenously injected into each rat. Subsequently, these animals were bred with a powdery feed preparation having a composition of AIN-93 and cotton seed oil in which each of maslinic acid, erythrodiol, ursolic acid, uvaol, betulinic acid, betulin, compounds of Synthetic Examples 1 and 2, or oleanolic acid had been dissolved in a predetermined concentration was intraperitoneally injected into each animal or orally administered thereto using a sonde, every other day starting from the 2nd day after the injection of the B 16 melanoma cells. In this connection, only cotton seed oil was administered to the control group. On the 15th day after the injection of the B 16 melanoma cells, the lung of each animal was taken out, the lungs were examined to determine the number of cancer lesions thus metastasized and to thus calculate the rate of metastasis-inhibition in accordance with the following equation 2. The tumor cell-metastasis-inhibitory effect of each test sample could be evaluated on the basis of the resulting rate of metastasis-inhibition.
Rate of Metastasis-Inhibition (%)=[(D−C)/D]×100
Wherein C: Average number of cancer lesions metastasized observed in each animal group; and D: average number of cancer lesions metastasized observed in the control group.
Maslinic acid, erythrodiol, ursolic acid, uvaol, betulinic acid, betulin and physiologically acceptable salts thereof or derivatives thereof as well as cotton seed oil as the control were inspected for the rate of metastasis-inhibition (RMI) using the dose and administration methods specified in the following Table 2. In addition, the same procedures used above were repeated except for using oleanolic acid as a comparative sample to thus evaluate the rate of metastasis-inhibition (RMI) thereof.

The mark [1] stands for this setting: 5 ppm, viable cell count vs control on 6th day.
[2] abbreviates: 10 ppm, viable cell count vs control on 6th day.
Setting [3] is: 15 ppm, viable cell count vs control on 6th day.
[4] abbreviates: 20 ppm, viable cell count vs control on 6th day.
The mark [5] stands for this setting: 25 ppm, viable cell count vs control on 6th day.
The mark [6] stands for this setting: Mus musculus, B16, 144 h, 5 ppm, viable cell count vs control on 6th day, read-out: Cell Growth Rate.
The mark [7] stands for this setting: Mus musculus, B16, 144 h, 15 ppm, viable cell count vs control on 6th day, read-out: Cell Growth Rate.
Where [8] appears, read: Mus musculus, B16, 144 h, 25 ppm, viable cell count vs control on 6th day, read-out: Cell Growth Rate.
[9] abbreviates: Mus musculus, B16, 144 h, 50 ppm, viable cell count vs control on 6th day.
Where [10] appears, read: 50 ppm, viable cell count vs control on 6th day.
[11] abbreviates: 30 ppm, viable cell count vs control on 6th day.
[12] abbreviates: 40 ppm, viable cell count vs control on 6th day.

Turning to “2,3-O-di-stearoyl-maslinic acid ethyl ester [Comp. Of Synthetic Ex. 4]”, the “Cell Growth Rate” value worked out at 100% in the experiment on B-16 melanoma cells (setting [1]); 82% in the experiment with B-16 melanoma cells (setting [2]); 52% in the experiment on B-16 melanoma cells (setting [3]); 13% with B-16 melanoma cells (setting [4]); 0% in the experiment with B-16 melanoma cells (setting [5]).

“2,3-O-di-triethylsilyl-maslinic acid triethylsilyl ester [Comp. Of Synthetic Ex. 3]”: the “Cell Growth Rate” value in the experiment with B-16 melanoma cells (setting [1]) was 93%; with B-16 melanoma cells (setting [2]), 75%; in the experiment with B-16 melanoma cells (setting [3]) it was 54%; with B-16 melanoma cells (setting [4]), 21%; in the experiment with B-16 melanoma cells (setting [5]), 0%.

Turning to `C=C(C)[C@@H]1CC[C@]2(CO)CC[C@]3(C)[C@H](CC[C@@H]4[C@@]5(C)CC[C@H](O)C(C)(C)[C@@H]5CC[C@]43C)[C@@H]12` [Betulin], in the experiment on B16 melanoma cells, the “RMI (rate of metastasis-inhibition)” value turned out to be 38.9% and the “tumor cell-metastasis-inhibitory effect compared with the control group (in words)” value is “significantly (P<0.05) inhibit any metastasis of cancer to lung”. Besides, the activity at 5 ppm in the experiment on B-16 melanoma cells (setting [6]) worked out at 100%. Also, in the experiment on B-16 melanoma cells (setting [7]), the activity at 15 ppm is 78%. Also, the activity at 25 ppm with B-16 melanoma cells (setting [8]) was 72%. In the experiment with B-16 melanoma cells (setting [9]), this compound displayed an activity at 50 ppm of 63%. In addition, the “tumor cell-proliferation-inhibitory effect (in words)” value in the experiment on B-16 melanoma cells is “quite strong tumor cell-proliferation-inhibitory effects”.

On to `C=C(C)[C@@H]1CC[C@]2(C(=O)O)CC[C@]3(C)[C@H](CC[C@@H]4[C@@]5(C)CC[C@H](O)C(C)(C)[C@@H]5CC[C@]43C)[C@@H]12` [Betulinic acid], for which, in the experiment on B16 melanoma cells, the “RMI (rate of metastasis-inhibition)” value is on record as 51.2% and the “tumor cell-metastasis-inhibitory effect compared with the control group (in words)” value was “significantly (P<0.05) inhibit any metastasis of cancer to lung”. In the experiment with B-16 melanoma cells (setting [6]), the activity at 5 ppm amounted to 88%. In addition, in the experiment with B-16 melanoma cells (setting [7]), the activity at 15 ppm came to 77%. Further, in the experiment with B-16 melanoma cells (setting [8]), the activity at 25 ppm came out at 58%. Also, in the experiment with B-16 melanoma cells (setting [9]), the activity at 50 ppm came to 38%. Moreover, the “tumor cell-proliferation-inhibitory effect (in words)” value in the experiment with B-16 melanoma cells was “quite strong tumor cell-proliferation-inhibitory effects”.

With `CC(=O)OCC12CCC(C)(C)CC1C1=CCC3C4(C)CCC(OC(C)=O)C(C)(C)C4CCC3(C)C1(C)CC2` (stereo not drawn) [Comp. Of Synthetic Ex. 5, 3,28-O-di-acetyl-erythrodiol], the “Cell Growth Rate” value in the experiment on B-16 melanoma cells (setting [1]) stood at 68%; in the experiment on B-16 melanoma cells (setting [2]), 50%; with B-16 melanoma cells (setting [3]) it was 23%; in the experiment with B-16 melanoma cells (setting [4]), 0%; in the experiment on B-16 melanoma cells (setting [5]) it was 0%.

On to `CCOC(=O)[C@]12CC[C@@H](C)[C@H](C)[C@H]1C1=CC[C@@H]3[C@@]4(C)CC[C@H](O)C(C)(C)[C@@H]4CC[C@@]3(C)[C@]1(C)CC2` [Comp. Of Synthetic Ex. 6, ursolic acid ethyl ester], for which the “Cell Growth Rate” value is recorded as 79% in the experiment on B-16 melanoma cells (setting [1]), 72% with B-16 melanoma cells (setting [3]), 58% in the experiment on B-16 melanoma cells (setting [5]) and 47% in the experiment on B-16 melanoma cells (setting [10]).

For the compound `CC(=O)OC[C@]12CC[C@@H](C)[C@H](C)[C@H]1C1=CC[C@@H]3[C@@]4(C)CC[C@H](OC(C)=O)C(C)(C)[C@@H]4CC[C@@]3(C)[C@]1(C)CC2` [Comp. Of Synthetic Ex. 7, 3,28-O-di-acetyl-uvaol], the “Cell Growth Rate” value in the experiment on B-16 melanoma cells (setting [1]) was 85%; in the experiment on B-16 melanoma cells (setting [3]), 71%; in the experiment with B-16 melanoma cells (setting [5]), 54%; in the experiment with B-16 melanoma cells (setting [10]) it was 42%.

Regarding `C=C(C)[C@@H]1CC[C@]2(C(=O)OCC)CC[C@]3(C)[C@H](CC[C@@H]4[C@@]5(C)CC[C@H](O)C(C)(C)[C@@H]5CC[C@]43C)[C@@H]12` [Comp. Of Synthetic Ex. 8, betulinic acid ethyl ester], the “Cell Growth Rate” value was found to be 96% in the experiment with B-16 melanoma cells (setting [1]), 81% in the experiment on B-16 melanoma cells (setting [3]), 69% in the experiment with B-16 melanoma cells (setting [5]) and 53% in the experiment with B-16 melanoma cells (setting [10]).

As to `C=C(C)[C@@H]1CC[C@]2(COC(C)=O)CC[C@]3(C)[C@H](CC[C@@H]4[C@@]5(C)CC[C@H](OC(C)=O)C(C)(C)[C@@H]5CC[C@]43C)[C@@H]12` [Comp. Of Synthetic Ex. 9, 3,28-O-di-acetyl-betulin], the “Cell Growth Rate” value in the experiment with B-16 melanoma cells (setting [1]) is given as 100%; in the experiment on B-16 melanoma cells (setting [3]), 79%; with B-16 melanoma cells (setting [5]) it was 68%; in the experiment with B-16 melanoma cells (setting [10]), 60%.

Regarding `C=C(C)[C@@H]1CC[C@]2(C)CC[C@]3(C)[C@H](CC[C@@H]4[C@@]5(C)CC[C@H](O)C(C)(C)[C@@H]5CC[C@]43C)[C@@H]12` [Lupeol, lupeol, reference compound], the activity at 15 ppm in the experiment with B-16 melanoma cells (setting [7]) came out at 100%. Moreover, the activity at 20 ppm in the experiment on B-16 melanoma cells (Mus musculus, B16, 144 h, 20 ppm, viable cell count vs control on 6th day, read-out: Cell Growth Rate) is 100%. Further, in the experiment with B-16 melanoma cells (setting [8]), the activity at 25 ppm amounted to 100%. Also, in the experiment with B-16 melanoma cells (Mus musculus, B16, 144 h, 30 ppm, viable cell count vs control on 6th day), the activity at 30 ppm turned out to be 100%. Also, the activity at 40 ppm with B-16 melanoma cells (Mus musculus, B16, 144 h, 40 ppm, viable cell count vs control on 6th day) was found to be 100%. This compound also registered an activity at 50 ppm in the experiment on B-16 melanoma cells (setting [9]) of 100%. In the experiment with B-16 melanoma cells, the “tumor cell-killing effect (in words)” value is “not observed” and the “tumor cell-proliferation-inhibitory effect (in words)” value is “do not possess any tumor cell-proliferation-inhibitory effect at all”.

Turning to `C[C@H]1[C@H](C)CC[C@]2(C)CC[C@]3(C)C(=CC[C@@H]4[C@@]5(C)CC[C@H](O)C(C)(C)[C@@H]5CC[C@]43C)[C@H]12` [α-Amyrin, α-amyrin, reference compound], the “Cell Growth Rate” value in the experiment with B-16 melanoma cells (setting [3]), with B-16 melanoma cells (setting [4]), with B-16 melanoma cells (setting [5]), in the experiment with B-16 melanoma cells (setting [11]), in the experiment with B-16 melanoma cells (setting [12]) and in the experiment with B-16 melanoma cells (setting [10]) was 100% each time. In the experiment with B-16 melanoma cells, the “tumor cell-killing effect (in words)” value is given as “not observed”. In addition, in the experiment on B-16 melanoma cells, the “tumor cell-proliferation-inhibitory effect (in words)” value is “do not possess any tumor cell-proliferation-inhibitory effect at all”.

On to `CC1(C)CC[C@]2(C)CC[C@]3(C)C(=CC[C@@H]4[C@@]5(C)CC[C@H](O)C(C)(C)[C@@H]5CC[C@]43C)[C@@H]2C1` [β-Amyrin, β-amyrin, reference compound], for which the “Cell Growth Rate” value in the experiment with B-16 melanoma cells (setting [3]), in the experiment on B-16 melanoma cells (setting [4]), in the experiment on B-16 melanoma cells (setting [5]), in the experiment on B-16 melanoma cells (setting [11]), in the experiment on B-16 melanoma cells (setting [12]) and with B-16 melanoma cells (setting [10]) was 100% throughout. Also, the “tumor cell-killing effect (in words)” value with B-16 melanoma cells is “not observed”. In the experiment with B-16 melanoma cells, the “tumor cell-proliferation-inhibitory effect (in words)” value was “do not possess any tumor cell-proliferation-inhibitory effect at all”.
